Columns and labels:
[1] = tested on: women with acne; details: orally administered; cited from earlier work
[2] = Particle size distribution of SHR0302 by laser diffraction (Malvern, Hydro MV); format: physicochemical; details: SHR0302 used in Example 1; wet dispersion in ethyl acetate; FIG. 1
Text: In the pharmaceutical compositions of the present invention, the active ingredient is present as small particles. Particle size of the drug can be assessed using laser diffraction methods. Laser diffraction is recognized by standards and guidance agencies including ISO and ASTM and is widely used to determine particle size distributions. In conducting the assessment, the sample is passed through a laser beam, which results in laser light scattered at a range of angles. Detectors placed at fixed angles measure the intensity of light scattered at that position. A mathematical model is then applied to generate a particle size distribution. The particle size values reported herein are determined by using a liquid or wet dispersion method.
In particle size determinations, the median value is defined as the value where half of the population resides above this point, and half resides below this point. For particle size distributions the median is called the D50. The D50 is the size that splits the distribution with half above and half below this diameter. The distribution width may also be characterized by citing one, two or three values on the x-axis, typically some combination of the D10, D50, and D90. The D50, the median, has been defined above as the diameter where half of the population lies below this value. Similarly, 90 percent of the distribution lies below the D90, and 10 percent of the population lies below the D10.
A pharmaceutical composition comprising 3% SHR0302 suspended in dimethicone was prepared. The primary particle size distribution of the SHR0302 is characterized by a D10 value of less than about 0.25 μm; a D50 value of less than about 0.7 μm; and a D90 value of less than about 5 μm. The pharmaceutical composition was a transparent solution due to the particles being too small to scatter visible light. A Malvern Metasizer Model 3000 using the Hydro MV dispersion unit was used to determine the particle size distribution profile of SHR0302. […]

[3] = target: JAK1 (Homo sapiens, UniProt P23458); details: cited from earlier work
JAK1, sequence (P23458 whole entry, species assumed): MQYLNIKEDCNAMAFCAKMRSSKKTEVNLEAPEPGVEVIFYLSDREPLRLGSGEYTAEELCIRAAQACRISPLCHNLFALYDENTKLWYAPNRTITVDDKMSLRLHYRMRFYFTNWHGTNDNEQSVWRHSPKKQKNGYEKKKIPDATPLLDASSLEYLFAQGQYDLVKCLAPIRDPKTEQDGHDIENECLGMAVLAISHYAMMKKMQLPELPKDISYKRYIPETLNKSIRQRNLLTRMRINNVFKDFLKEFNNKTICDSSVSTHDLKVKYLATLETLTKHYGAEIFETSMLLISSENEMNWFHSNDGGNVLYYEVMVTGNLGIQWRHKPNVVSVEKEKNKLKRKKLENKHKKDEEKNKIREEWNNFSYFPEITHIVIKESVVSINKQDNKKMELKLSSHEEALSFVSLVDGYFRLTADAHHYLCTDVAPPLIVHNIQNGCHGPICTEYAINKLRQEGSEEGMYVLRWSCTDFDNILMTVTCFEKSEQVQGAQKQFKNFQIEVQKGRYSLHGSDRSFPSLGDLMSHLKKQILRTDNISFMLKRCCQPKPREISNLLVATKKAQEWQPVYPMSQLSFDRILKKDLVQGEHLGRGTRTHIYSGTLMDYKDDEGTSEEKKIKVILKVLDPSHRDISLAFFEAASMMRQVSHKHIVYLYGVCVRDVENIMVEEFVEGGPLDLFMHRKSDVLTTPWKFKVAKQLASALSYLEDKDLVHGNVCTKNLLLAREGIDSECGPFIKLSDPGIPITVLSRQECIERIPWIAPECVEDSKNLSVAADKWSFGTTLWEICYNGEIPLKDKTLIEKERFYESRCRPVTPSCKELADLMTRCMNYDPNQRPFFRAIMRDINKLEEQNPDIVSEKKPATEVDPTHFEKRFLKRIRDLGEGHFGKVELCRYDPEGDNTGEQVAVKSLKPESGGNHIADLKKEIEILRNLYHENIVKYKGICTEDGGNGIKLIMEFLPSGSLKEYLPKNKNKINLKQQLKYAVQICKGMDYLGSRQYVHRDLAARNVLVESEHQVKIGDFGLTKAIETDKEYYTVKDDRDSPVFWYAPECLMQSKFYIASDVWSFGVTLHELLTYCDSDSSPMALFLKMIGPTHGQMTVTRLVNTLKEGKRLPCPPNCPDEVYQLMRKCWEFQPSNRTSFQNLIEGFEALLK

primary particle size distribution D10 value [2] | primary particle size distribution D50 value [2] | primary particle size distribution D90 value [2] | SMILES | efficacy in the treatment of women with acne [1] | selectivity for JAK1 over JAK2 [3]
– | – | – | CC(=O)S[C@@H]1CC2=CC(=O)CC[C@]2(C)[C@H]2CC[C@@]3(C)[C@@H](CC[C@@]34CCC(=O)O4)[C@H]12 [spironolactone, 17-hydroxy-7α-mercapto-3-oxo-17α-pregn-4-ene-21-carboxylic acid γ-lactone acetate] | efficacious | –
less than 0.25 μm | less than 0.7 μm | less than 5 μm | COc1nsc(NC(=O)N2C[C@H]3C[C@H](N(C)c4ncnc5[nH]ccc45)C[C@H]3C2)n1 [SHR0302, (3aR,5S,6aS)—N-(3-methoxyl-1,2,4-thiadiazol-5-yl)-5-(methyl(7H-pyrrolo[2,3-d]pyrimidin-4-yl)amino)hexahydrocyclopenta[c]pyrrole-2(1H)-carboxamide] | – | high selectively for JAK1 over JAK2
